Source: ChEMBL document CHEMBL5727087, “Inhibitors of lysine gingipain” (2018)

Experiment: Inhibition Assay: The specific assay conditions were as follows. Buffer: pH=7.5, 100 mM Tris-HCl, 75 mM NaCl, 2.5 mM CaCl2, 10 mM cysteine, 1% DMSO after all additions. Protein: 0.1 nM Kgp, isolated from culture of Porphyromonas gingivalis, as described in Pike et al. J. Biol. Chem. 1994, 269(1), 406, and Potempa and Nguyen. Current Protocols in Protein Scienc. 2007, 21.20.1-21.20.27. Fluorogenic substrate: 10 uM Z-His-Glu-Lys-MCA. Time=90 minutes. Temperature=37° C. Each compound: 10 concentrations, starting at either 100 uM or 100 nM, with lower concentrations generated by serial 3-fold dilutions. By testing a range of concentrations for each compound, the concentration required to inhibit the activity of lysine gingipain by 50% (the “IC50”) was determined. Under the described assay conditions, signal-to-noise was excellent, and Z factor was greater than 0.6.

Question: Which IC50 does the source give for `NCCCC[C@H](NC(=O)C1CCCC1)C(=O)COc1c(F)c(F)cc(F)c1F` here?
Answer: The IC50 was < 1 nM.
